From US9862679B2, “Potent and selective inhibitors of monoamine transporters; method of making; and use thereof” (priority 2013, dated 2018)
Read-outs that look alike come from different tables or passages of the source.

Assays:
[1] = biological target: norepinephrine transporter (NET) (Rattus norvegicus, UniProt Q63380); details: rat brain membranes; for Ki: read-out: Ki (nM) ± S.E.M. NET
Protocol: Binding affinities of all compounds were evaluated at the DAT, SERT, and NET in rat brain membranes using previously described methods:
Norepinephrine Transporter Binding Assay. Brains from male Sprague-Dawley rats weighing 200-225 g (Taconic Labs, Germantown, N.Y.) were removed, frontal cortex dissected and rapidly frozen. Membranes were prepared by homogenizing tissues in 20 volumes (w/v) of 50 mM Tris containing 120 mM NaCl and 5 mM KCl, (pH 7.4 at 25° C.), using a Brinkman Polytron and centrifuged at 50,000×g for 10 min at 4° C. The resulting pellet was resuspended in buffer, recentrifuged and resuspended in buffer to a concentration of 80 mg/mL. Ligand binding experiments were conducted in assay tubes containing 0.5 mL buffer for 60 min at 0-4° C. […] Nonspecific binding was determined using 1 mM desipramine. Incubations were terminated by rapid filtration through Whatman GF/B filters, presoaked in 0.05% polyethylenimine, using a Brandel R48 filtering manifold (Brandel Instruments Gaithersburg, Md.). The filters were washed twice with 3 mL cold buffer and transferred to scintillation vials. Beckman Ready Value (3.0 mL) was added and the vials were counted using a Beckman 6000 liquid scintillation counter (Beckman Coulter Instruments, Fullerton, Calif.). […] All compounds were tested as racemic mixtures.

[2] = biological target: dopamine transporter (DAT) (Rattus norvegicus (Rat), UniProt P23977); experiment: Dopamine Transporter Binding Assay ([3H]WIN 35428, rat striatal membranes); details: for Ki: read-out: Ki (nM) ± S.E.M. DAT
Sequence of dopamine transporter (DAT) (P23977 whole entry): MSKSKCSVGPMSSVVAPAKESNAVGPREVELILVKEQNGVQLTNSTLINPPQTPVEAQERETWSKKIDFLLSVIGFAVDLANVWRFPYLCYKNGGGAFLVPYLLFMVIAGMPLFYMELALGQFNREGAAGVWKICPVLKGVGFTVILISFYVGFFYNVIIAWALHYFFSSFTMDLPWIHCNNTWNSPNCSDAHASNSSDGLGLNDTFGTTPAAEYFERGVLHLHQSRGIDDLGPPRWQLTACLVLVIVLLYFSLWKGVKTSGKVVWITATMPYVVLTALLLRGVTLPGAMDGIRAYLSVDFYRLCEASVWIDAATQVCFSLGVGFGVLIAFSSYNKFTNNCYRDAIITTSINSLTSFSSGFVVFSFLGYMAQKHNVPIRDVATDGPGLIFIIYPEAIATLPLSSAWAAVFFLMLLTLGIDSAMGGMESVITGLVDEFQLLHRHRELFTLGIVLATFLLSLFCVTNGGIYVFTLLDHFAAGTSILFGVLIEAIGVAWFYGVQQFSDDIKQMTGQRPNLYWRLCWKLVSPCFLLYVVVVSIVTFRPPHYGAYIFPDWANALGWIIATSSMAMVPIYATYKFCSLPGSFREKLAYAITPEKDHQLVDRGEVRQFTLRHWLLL

[3] = biological target: serotonin transporter (SERT) (Rattus norvegicus (Rat), UniProt P31652); details: for Ki: read-out: Ki (nM) ± S.E.M. SERT, rat brain membranes
Sequence of serotonin transporter (SERT) (P31652 whole entry): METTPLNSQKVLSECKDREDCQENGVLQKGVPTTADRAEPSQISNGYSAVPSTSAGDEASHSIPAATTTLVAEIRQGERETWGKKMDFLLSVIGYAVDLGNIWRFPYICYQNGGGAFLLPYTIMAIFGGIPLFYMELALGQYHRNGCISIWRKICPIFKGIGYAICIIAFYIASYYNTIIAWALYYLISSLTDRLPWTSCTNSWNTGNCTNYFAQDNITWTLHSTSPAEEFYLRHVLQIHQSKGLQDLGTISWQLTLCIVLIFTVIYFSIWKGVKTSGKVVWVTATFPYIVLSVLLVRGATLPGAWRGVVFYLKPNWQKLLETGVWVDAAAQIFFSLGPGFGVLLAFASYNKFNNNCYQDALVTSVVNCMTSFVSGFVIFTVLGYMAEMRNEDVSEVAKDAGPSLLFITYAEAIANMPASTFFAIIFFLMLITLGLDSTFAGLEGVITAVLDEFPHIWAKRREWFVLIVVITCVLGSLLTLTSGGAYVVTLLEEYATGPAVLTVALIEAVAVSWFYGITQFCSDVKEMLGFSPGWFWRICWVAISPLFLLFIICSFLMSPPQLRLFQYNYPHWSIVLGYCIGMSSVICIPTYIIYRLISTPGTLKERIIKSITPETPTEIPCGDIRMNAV
Protocol: Brains from male Sprague-Dawley rats weighing 200-225 g (Taconic Labs, Germantown, N.Y.) were removed, midbrain dissected and rapidly frozen. […] Nonspecific binding was determined using 10 mM fluoxetine. […] The filters were washed twice with 3 mL cold buffer and transferred to scintillation vials. Beckman Ready Value (3.0 mL) was added and the vials were counted the next day using a Beckman 6000 liquid scintillation counter (Beckman Coulter Instruments, Fullerton, Calif.). […] Data were analyzed with GraphPad Prism software (San Diego, Calif.).

[4] = Table 1 thioacetamides and sulfinylacetamides
[5] = rat brain membranes, Table 1 thioacetamides and sulfinylacetamides
[6] = Table 2 thioethanamines and sulfinylethanamines
[7] = rat brain membranes, Table 2 thioethanamines and sulfinylethanamines

Sequence of norepinephrine transporter (NET) (Q63380 1-617): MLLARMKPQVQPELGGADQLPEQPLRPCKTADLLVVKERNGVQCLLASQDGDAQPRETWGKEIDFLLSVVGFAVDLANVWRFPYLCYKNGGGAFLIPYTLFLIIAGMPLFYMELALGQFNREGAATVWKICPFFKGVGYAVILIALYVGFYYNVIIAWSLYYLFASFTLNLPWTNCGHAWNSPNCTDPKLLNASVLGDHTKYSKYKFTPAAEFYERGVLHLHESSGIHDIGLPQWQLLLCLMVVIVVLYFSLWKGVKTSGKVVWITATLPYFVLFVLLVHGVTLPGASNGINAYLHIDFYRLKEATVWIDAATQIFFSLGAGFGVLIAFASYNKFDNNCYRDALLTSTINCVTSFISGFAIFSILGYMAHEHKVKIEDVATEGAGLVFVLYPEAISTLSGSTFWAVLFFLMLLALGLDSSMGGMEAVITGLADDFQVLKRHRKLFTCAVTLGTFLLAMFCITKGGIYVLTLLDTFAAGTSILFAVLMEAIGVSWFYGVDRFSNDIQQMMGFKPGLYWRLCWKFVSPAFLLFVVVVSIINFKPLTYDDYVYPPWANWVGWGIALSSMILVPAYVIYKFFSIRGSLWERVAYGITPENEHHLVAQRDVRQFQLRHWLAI

Row | SMILES | Ki [1, 4] [nM] | Ki [2, 5] [nM] | Ki [3, 4] [nM] | Ki [3, 6] [nM] | other results
1 | NC(=O)CSC(c1ccccc1)c1ccccc1 [Compound 2a, 2-(Benzhydrylthio)acetamide] | > 100000 | – | – | – | –
2 | NC(=O)CSC(c1cccc(Cl)c1)c1cccc(Cl)c1 [Compound 2e, 2-((Bis(3-chlorophenyl)methyl)thio)acetamide] | 34000 | 277 ± 18.3 | 739000 | – | –
3 | CNC(=O)CSC(c1ccccc1)c1ccccc1 [Compound 2g, 2-(Benzhydrylthio)-N-methylacetamide] | 27300 | 19400 | > 300000 | – | –
4 | CNC(=O)CSC(c1ccc(Cl)cc1)c1ccc(Cl)cc1 [Compound 2h, 2-((Bis(4-chlorophenyl)methyl)thio)-N-methylacetamide] | – | – | > 30000 | – | –
5 | CNC(=O)CSC(c1ccc(Br)cc1)c1ccc(Br)cc1 [Compound 2i, 2-((Bis(4-bromophenyl)methyl)thio)-N-methylacetamide] | 11200 | 3030 | 5750 | – | improvement in DAT affinity, halogen-substituted v. unsubstituted analogue [2]: 6 fold; increase in SERT affinity, halogen-substituted v. unsubstituted analogue ([3]; 2i v. 2g (Table 1), 4c v. 4a (Table 2)): > 50 fold
6 | C=CCNC(=O)CSC(c1ccccc1)c1ccccc1 [Compound 2j, N-Allyl-2-(benzhydrylthio)acetamide] | > 230000 | 9190 | > 300000 | – | –
7 | CCCNC(=O)CSC(c1ccccc1)c1ccccc1 [Compound 2k, 2-(Benzhydrylthio)-N-propylacetamide] | 55900 | 20700 | > 550000 | – | –
8 | CCCNC(=O)CSC(c1ccc(F)cc1)c1ccc(F)cc1 [Compound 2l, 2-((Bis(4-fluorophenyl)methyl)thio)-N-propylacetamide] | 61700 | 12000 | 45100 | – | –
9 | CCCNC(=O)CSC(c1ccc(Cl)cc1)c1ccc(Cl)cc1 [Compound 2m, 2-((Bis(4-chlorophenyl)methyl)thio)-N-propylacetamide] | – | – | 10300 | – | –
10 | CCCNC(=O)CSC(c1ccc(Br)cc1)c1ccc(Br)cc1 [Compound 2n, 2-((Bis(4-bromophenyl)methyl)thio)-N-propylacetamide] | 10600 | – | – | – | –
11 | CCCCNC(=O)CSC(c1ccccc1)c1ccccc1 [Compound 2r, 2-(Benzhydrylthio)-N-butylacetamide] | > 100000 | 24000 | > 100000 | – | –
12 | CCCCNC(=O)CSC(c1ccc(F)cc1)c1ccc(F)cc1 [Compound 2s, 2-((Bis(4-fluorophenyl)methyl)thio)-N-butylacetamide] | – | 6470 | – | – | –
13 | CCCCNC(=O)CSC(c1ccc(Br)cc1)c1ccc(Br)cc1 [Compound 2t, 2-((Bis(4-bromophenyl)methyl)thio)-N-butylacetamide] | – | 729 ± 69.3 | 7090 | – | –
14 | O=C(CSC(c1ccccc1)c1ccccc1)NCCCc1ccccc1 [Compound 2u, 2-(Benzhydrylthio)-N-(3-phenylpropyl)acetamide] | – | – | – | – | Ki [2]: 2020 nM
15 | O=C(CSC(c1ccc(F)cc1)c1ccc(F)cc1)NCCCc1ccccc1 [Compound 2v, 2-((Bis(4-fluorophenyl)methyl)thio)-N-(3-phenylpropyl)acetamide] | > 100000 | – | 3640 | – | –
16 | O=C(CSC(c1ccc(Br)cc1)c1ccc(Br)cc1)NCCCc1ccccc1 [Compound 2x, 2-((Bis(4-bromophenyl)methyl)thio)-N-(3-phenylpropyl)acetamide] | 36300 | 244 ± 36.4 | 60800 | – | –
17 | O=C(CSC(c1ccccc1)c1ccccc1)NCCCCc1ccccc1 [Compound 2y, 2-(Benzhydrylthio)-N-(4-phenylbutyl)acetamide] | – | – | – | – | Ki [2]: 1160 nM

Row | SMILES | Ki [1, 4] [nM] | Ki [2, 5] [nM] | Ki [3, 4] [nM] | Ki [3, 6] [nM] | other results
18 | O=C(CSC(c1ccc(Br)cc1)c1ccc(Br)cc1)NCCCCc1ccccc1 [Compound 2z, 2-((Bis(4-bromophenyl)methyl)thio)-N-(4-phenylbutyl)acetamide] | > 100000 | – | > 100000 | – | Ki (nM) ± S.E.M. NET [1, 4]: no displacement
19 | NC(=O)C[S+]([O-])C(c1ccc(C(F)(F)F)cc1)c1ccc(C(F)(F)F)cc1 (stereo not drawn) [Compound 3b, 2-((Bis(4-(trifluoromethyl)phenyl)methyl)sulfinyl)acetamide] | – | 35400 | – | – | –
20 | CNC(=O)C[S+]([O-])C(c1ccccc1)c1ccccc1 (stereo not drawn) [Compound 3f, 2-(Benzhydrylsulfinyl)-N-methylacetamide] | > 100000 | 13400 | > 100000 | – | –
21 | O=C(C[S+]([O-])C(c1ccc(Br)cc1)c1ccc(Br)cc1)NCCCc1ccccc1 (stereo not drawn) [Compound 3g, 2-(Bis(4-bromophenyl)methylsulfinyl)-N-(3-phenylpropyl)acetamide] | > 100000 | 1290 | 906 ± 113 | – | –
22 | NCCSC(c1ccccc1)c1ccccc1 [Compound 4a, 2-(benzhydrylthio)ethan-1-amine] | – | – | – | 226 ± 30.6 | improved affinity at the DAT compared to (±)-modafinil [2]: about 20 fold; Ki [2]: 143 nM; Ki [1, 6]: 982 ± 43.3 nM
23 | c1ccc(C(SCCNCC2CC2)c2ccccc2)cc1 [Compound 4d, 2-(benzhydrylthio)-N-(cyclopropylmethyl)ethan-1-amine] | – | – | – | 10000 | Ki [2]: 437 ± 30.1 nM
24 | CCCCNCCSC(c1ccccc1)c1ccccc1 [Compound 4e, N-(2-(benzhydrylthio)ethyl)butan-1-amine] | – | – | – | 5820 | Ki [2, 7]: 315 ± 39.9 nM; Ki [1, 6]: 11500 nM
25 | c1ccc(CCCNCCSC(c2ccccc2)c2ccccc2)cc1 [Compound 4f, N-(2-(benzhydrylthio)ethyl)-3-phenylpropan-1-amine] | – | – | – | 853 ± 127 | Ki [2, 7]: 297 ± 28.2 nM; Ki [1, 6]: 3910 nM
26 | Brc1ccc(C(SCCNCCCc2ccccc2)c2ccc(Br)cc2)cc1 [Compound 4i, N-(2-((bis(4-bromophenyl)methyl)thio)ethyl)-3-phenylpropan-1-amine] | – | – | – | 163 ± 7.49 | Ki [2]: 618 ± 53 nM
27 | NCC[S+]([O-])C(c1ccccc1)c1ccccc1 (stereo not drawn) [Compound 5a, 2-(Benzhydrylsulfinyl)ethan-1-amine] | – | – | – | 3420 | –
28 | CCCCNCC[S+]([O-])C(c1ccccc1)c1ccccc1 (stereo not drawn) [Compound 5b, N-(2-(benzhydrylsulfinyl)ethyl)butan-1-amine] | – | – | – | 64600 | Ki [2, 7]: 1580 nM; Ki [1, 6]: > 140000 nM
29 | [O-][S+](CCNCCCc1ccccc1)C(c1ccc(F)cc1)c1ccc(F)cc1 (stereo not drawn) [Compound 5c, N-(2-((bis(4-fluorophenyl)methyl)sulfinyl)ethyl)-3-phenylpropan-1-amine] | – | – | – | 1310 | Ki [2, 7]: 200 ± 38.7 nM; Ki [1, 6]: 3280 nM
30 | [O-][S+](CCNCCCc1ccccc1)C(c1ccc(Cl)cc1)c1ccc(Cl)cc1 (stereo not drawn) [Compound 5d, N-(2-((bis(4-chlorophenyl)methyl)sulfinyl)ethyl)-3-phenylpropan-1-amine] | – | – | – | 542 ± 42.6 | Ki [2, 7]: 660 ± 76.9 nM; Ki [1, 6]: 5800 nM
31 | [O-][S+](CCNCCCc1ccccc1)C(c1ccc(Br)cc1)c1ccc(Br)cc1 (stereo not drawn) [Compound 5e, N-(2-((bis(4-bromophenyl)methyl)sulfinyl)ethyl)-3-phenylpropan-1-amine] | – | – | – | 564 ± 65.3 | Ki [2, 7]: 1290 nM; Ki [1, 6]: 7580 nM
32 | NC(=O)CSC(c1ccc(Cl)cc1)c1ccc(Cl)cc1 [Compound 100, reference compound] | – | – | 12700 | – | Ki [2]: 2230 nM
33 | [O-][S+](CCNCCCc1ccccc1)C(c1ccccc1)c1ccccc1 (stereo not drawn) [Compound 200, reference compound] | – | – | – | 1000 | Ki [2]: 194 ± 16.8 nM
